Experimental data published in patent US5451582A, “Benzodiazepine derivatives, compositions containing them and their use in therapy” (Merck Sharp & Dohme Ltd., priority 1992, dated 1995).

Key:
CCK receptor (brain) = target: T1, CCK receptor (brain) (Cavia porcellus, UniProt H0VZC5); assay: CCK Receptor Binding (Brain), inhibition of 125I-CCK-8 binding; set-up: species or system guinea pig (male Hartley); conditions: guinea pig cortex membranes; 50 pM 125I-CCK-8; pH 6.5; 25° C., 2 hours
T1 construct: the cortex was removed and homogenized in 25 mL ice-cold 0.32M sucrose; from tissue; host or cells: guinea pig cerebral cortex P2 membranes (male Hartley)
T1 sequence (H0VZC5 1-426): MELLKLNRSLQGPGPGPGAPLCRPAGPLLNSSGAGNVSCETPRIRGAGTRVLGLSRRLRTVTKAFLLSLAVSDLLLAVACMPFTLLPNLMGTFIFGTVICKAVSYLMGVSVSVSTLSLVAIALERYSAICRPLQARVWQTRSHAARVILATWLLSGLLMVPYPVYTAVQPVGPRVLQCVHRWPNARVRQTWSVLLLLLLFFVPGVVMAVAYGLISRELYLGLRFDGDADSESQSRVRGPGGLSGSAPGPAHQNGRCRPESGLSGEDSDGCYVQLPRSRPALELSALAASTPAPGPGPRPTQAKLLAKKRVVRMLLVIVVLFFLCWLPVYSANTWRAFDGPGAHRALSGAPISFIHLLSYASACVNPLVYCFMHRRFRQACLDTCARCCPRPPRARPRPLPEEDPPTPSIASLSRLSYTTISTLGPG
Experimental: 2. CCK Receptor Binding (Brain)
CCK-8 sulphated was radiolabelled and the binding was performed according to the description for the pancreas method with minor modifications.
Male Hartley guinea pigs (300-500 g) were sacrificed by decapitation and the cortex was removed and homogenized in 25 mL ice-cold 0.32M sucrose. The homogenates were centrifuged at 1000 g for 10 minutes and the resulting supernatant was recentrifuged at 20,000 g for 20 minutes. The P2 pellet was resuspended in binding assay buffer (20 mM HEPES, 5 mMMgCl2, 0.25 ml/ml bacitracin, 1 mM EGTA pH 6.5 at 25° C.), using a Teflon (trademark) homogenizer (5 strokes at 500 rpm) to give a final concentration of […] original wet weight/1.2 ml buffer. For the binding assay, 50 μl of buffer (for total binding) or unlabelled CCK-8 sulphated to give a final concentration of 1 μM (for nonspecific binding) or the compounds of Formula I (for determination of inhibition of ^125 I-CCK-8 binding) and 50 μl of 500 pM ^125 I-CCK-8 (i.e. final concentration of 50 pM) were added to 400 μl of the membrane suspensions in microfuge tubes. All assays were run in duplicate. The reaction mixtures were incubated at 25° C. for 2 hours and then the reaction was terminated by rapid filtration (Brandell 24 well cell harvester) on Whatman GF/C filters with 3×5 ml washes of cold 100 mM NaCl. The radioactivity on the filters was counted with a LKB gamma counter.
The preferred compounds of Formula I are those which produced dose-dependent inhibition of specific ^125 I-CCK-8 binding as defined as the difference between total and non-specific (i.e. in the presence of 1 μM CCK) binding.
Drug displacement studies were performed with at least 10 concentrations of compounds of Formula I and the IC50 values were determined by regression analysis IC50 refers to the concentration of the compound required to inhibit 50% of specific binding of ^125 I-CCK-8.

CCK receptor (pancreas) = target: T2, CCK receptor (pancreas) (Rattus norvegicus, UniProt P30551); assay: CCK Receptor Binding (Pancreas), inhibition of 125I-CCK-8 binding; set-up: species or system rat (male Sprague-Dawley); conditions: rat pancreas membranes; 50 pM 125I-CCK-8; pH 6.5; 25° C., 2 hours
T2 construct: The whole pancreas was dissected free of fat tissue and was homogenized; from tissue; host or cells: rat pancreas membranes (male Sprague-Dawley)
T2 sequence (P30551 1-444): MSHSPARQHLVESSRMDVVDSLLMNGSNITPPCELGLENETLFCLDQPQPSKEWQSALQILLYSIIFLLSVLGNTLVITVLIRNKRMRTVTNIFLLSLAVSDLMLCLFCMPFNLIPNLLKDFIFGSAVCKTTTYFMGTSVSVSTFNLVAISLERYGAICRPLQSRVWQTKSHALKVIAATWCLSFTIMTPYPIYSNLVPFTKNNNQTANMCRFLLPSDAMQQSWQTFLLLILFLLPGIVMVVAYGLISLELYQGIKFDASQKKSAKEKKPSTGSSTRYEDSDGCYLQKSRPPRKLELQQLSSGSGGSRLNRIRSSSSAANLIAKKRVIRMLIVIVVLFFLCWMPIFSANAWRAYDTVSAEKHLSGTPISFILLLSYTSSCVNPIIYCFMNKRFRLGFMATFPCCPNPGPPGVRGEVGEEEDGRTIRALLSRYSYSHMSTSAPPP
Experimental: 1. CCK Receptor Binding (Pancreas)
CCK-8 sulphated was radiolabelled with ^125 I-Bolton Hunter reagent (2000 Ci/mmole). Receptor binding was performed according to Chang and Lotti (Proc. Natl. Acad. Sci. 83, 4923-4926, 1986) with minor modifications.
Male Sprague-Dawley rats (150-200 g) were sacrificed by decapitation. The whole pancreas was dissected free of fat tissue and was homogenized in 25 volumes of ice-cold 10 mM N-2-hydroxyethyl-piperazine-N'-2-ethane sulphonic acid (HEPES) buffer with 0.1% soya bean trypsin inhibitor (pH 7.4 at 25° C.) with a Kinematica Polytron. The homogenates were centrifuged at 47,800 g for 10 min. Pellets were resuspended in 10 volumes of binding assay buffer (20 mM (HEPES)), 1 mM ethylene glycol-bis-(β-aminoethylether-N,N'-tetraacetic acid) (EGTA), 5 mM MgCl2, 150 mM NaCl, bacitracin 0.25 ml/ml, soya bean trypsin inhibitor 0.1 ml/ml, and bovine serum albumin 2 ml/ml pH 6.5 at 25° C.) using a Teflon (trademark) homogenizer, 15 strokes at 500 rpm. The homogenate was further diluted in binding assay buffer to give a final concentration of 0.5 ml original wet weight/1 ml buffer. For the binding assay, 50 μl of buffer (for total binding) or unlabelled CCK-8 sulphated to give a final concentration of 1 μM (for nonspecific binding) or the compounds of Formula I (for determination of inhibition of ^125 I-CCK-8 binding) and 50 μl of 500 pM ^125 I-CCK-8 (i.e. 50 pM final concentration) were added to 400 μl of the membrane suspensions in microfuge tubes. All assays were run in duplicate. The reaction mixtures were incubated at 25° C. for 2 hours and the reaction terminated by rapid filtration (Brandell 24 well cell harvester) over Whatman GF/C filters, washing 3×4 mls with ice-cold 100 Mm NaCl. The radioactivity on the filters was counted with a LKB gamma counter.
The preferred compounds of Formula I are those which produced dose-dependent inhibition of specific ^125 I-CCK-8 binding as defined as the difference between total and non-specific (i.e. in the presence of 1 μM CCK) binding. […]

Compound	IC50 (CCK receptor (brain)) [nM]	IC50 (CCK receptor (pancreas)) [nM]
CC1=NC(NC(=O)Nc2cccc(-c3nn[nH]n3)c2)C(=O)N(C)c2ccccc21 (racemic) [Example 1, N-[3(R,S)-2,3-Dihydro-1,5-dimethyl-2-oxo-1H-1,4-benzodiazepin-3-yl]N'-[3-tetrazol-5-ylphenyl]urea]	104	> 3000
CC(C)CN1C(=O)C(NC(=O)Nc2cccc(-c3nn[nH]n3)c2)N=C(C(C)C)c2ccccc21 (racemic) [Example 2, N-[3(R,S)-2,3-Dihydro-1-(2-methylpropyl)-2-oxo-5-(2-propyl) -1H-1,4-benzodiazepin-3-yl]N'-[3-tetrazol-5-ylphenyl]urea]	17	600
CC(C)CN1C(=O)C(NC(=O)Nc2cccc(C(=O)NS(C)(=O)=O)c2)N=C(C(C)(C)C)c2ccccc21 (racemic) [Example 3, N-[3(R,S)-2,3-Dihydro-5-(1,1-dimethylethyl)-1-(2-methylpropyl) -2-oxo-1H-1,4-benzodiazepin-3yl]N'-(3-(methylsulphonylaminocarbonyl)phenyl]urea]	32	612
